The source of these data is patent US11926640B2, “Prodrugs of glutamine analogs” (THE JOHNS HOPKINS UNIVERSITY, priority 2015, dated 2024).

Structures are written as SMILES. Entries after “also recorded” stand apart in the source; their conditions may differ.

Data set [1] can be described thus: plasma and CSF pharmacokinetics of DON in monkeys after i.v. DON or 14b. Format: in vivo, pigtail macaques. Particulars: Monkey, FIG. 58B. On the procedure: Pharmacokinetic Studies in Non-human primates. All monkey studies were conducted according to protocol (#PR15M298) approved by the Animal Care and Use Committee at Johns Hopkins University. Two female pigtail monkeys (approximately 3.5 kg, non-drug naive) were adjacently housed in stainless steel cages on a social interaction rack (contains 4 cages, each 32.5″ wide×28″ deep×32″ high) maintaining temperature of 64-84° F., humidity of 30-70% with alternating 14-10 hour light/dark cycle as per the USDA Animal Welfare Act (9 CFR. Parts 1, 2, and 3). Food was provided daily in amounts appropriate for the size and age of the animals and RO purified water provided ad libitum through an in-cage lixit valve. Food enrichment was provided Monday through Friday. Prior to drug administration, macaques were sedated with ketamine given as an intramuscular injection prior to test article administration. […]
Bioanalysis of DON. […] The mean predicted relative standard deviation for back calculated concentrations of the standards and QC's for all analytes were within the range of 85 to 115%, except for the lowest concentration which was within the range of 80 to 120% with an overall accuracy and precision of 6.7% and 6.6%, respectively.
Pharmacokinetic Analysis. […] Area under the curve (AUC) was calculated by log-linear trapezoidal rule to the end of sample collection (AUClast). […]

Data set [2] in a line: in vitro metabolic stability in mouse plasma.
A short description of data set [3]: in vitro metabolic stability in human plasma.
Data set [4] is described as follows: in vitro metabolic stability in monkey plasma.
Data set [5] is described as follows: in vitro metabolic stability in dog plasma. Format: in vitro ADME. To be noted: 30 min and 60 min. On the procedure: Percentage remaining was calculated in the following manner.
A short description of data set [6]: plasma and CSF pharmacokinetics of DON in swine after i.v. infusion. Format: in vivo, Göttingen×Yucutan miniature swine. Particulars: 60 min post-administration. The protocol: Compound: Compound 47 was dissolved in a sterile saline containing 5% ethanol and 5% Tween 80 on the date of administration.
Swine: Swine studies were conducted under a protocol approved by the Johns Hopkins Animal Care and Use Committee. Adult, female Göttingen×Yucutan miniature swine (Massachusetts General Hospital, MA) were housed in Johns Hopkins University facilities accredited by the Association for Assessment and Accreditation of Laboratory Animal Care International in compliance with the Animal Welfare Act, Animal Welfare Regulations, and the Public Health Service Policy on the Humane Care and Use of Laboratory Animals. Animals were maintained on a 14-h light and 10-h dark schedule, provided ad libitum water and a commercial miniswine diet (Teklad, Madison, WI) with environmental enrichment (fruit/vegetables) twice daily.

Data set [7] is described as follows: in vitro metabolic stability in pig plasma. To be noted: 30 min and 60 min.

Turning to `CC(C)OC(=O)[C@H](CCC(=O)C=[N+]=[N-])NC(=O)OC(C)OC(=O)C(C)(C)C` (single isomer, unassigned) [Compound 14b, 1-Methylethyl 6-(1λ^5-diazynylidene)-N-({1-[(2,2-dimethylpropanoyl)oxy]ethoxy}carbonyl)-5-oxo-L-norleucinate], the “CSF:plasma ratio of DON (in words)” value in data set [1] is on record as “enhanced CSF:plasma ratio”. For the same molecule, in data set [2] (30 min and 60 min), the “stability in mouse plasma (in words)” value is “rapidly metabolized”. In addition, the “PLASMA STABILITY Mouse” value in data set [2] (prodrug remaining within the 60 min incubation time, mouse plasma) is recorded as 0%. The “stability in human plasma (in words)” value in data set [3] (30 min and 60 min) is “highly stable”. The “PLASMA STABILITY Human” value in data set [3] (prodrug remaining within the 60 min incubation time, human plasma) was 91%. Moreover, the “stability in monkey plasma (in words)” value in data set [4] (30 min and 60 min) is “highly stable”. In data set [4] (prodrug remaining within the 60 min incubation time, monkey plasma), the “PLASMA STABILITY Monkey” value is reported as 61%. In addition, in data set [5], the “stability in dog plasma (in words)” value was “highly stable”. In data set [6], the “CSF delivery of DON (in words)” value is reported as “substantially higher amounts of DON to the CSF; also recorded: enhanced CSF delivery of DON” and the “CSF:plasma ratio of DON (in words)” value is recorded as “increased CSF-to-plasma ratios; also recorded: enhanced CSF:plasma ratio”. Besides, the “stability in pig plasma (in words)” value in data set [7] is reported as “highly stable”.
